# Source: patent publication US9701689B2, “Substituted pyridines and pyridazines as CCR10 receptor inhibitors” (KYOWA HAKKO KIRIN CO., LTD., priority 2012, dated 2017)
# Biological target: T1, human CCR10 (Homo sapiens, UniProt P46092)
# T1 construct: expressed in transfected cells; host or cells: KJMGER8 cells (Namalwa cell-derived line), beta-estradiol-induced; hCCR10G16 cells
# T1 sequence (P46092 1-362): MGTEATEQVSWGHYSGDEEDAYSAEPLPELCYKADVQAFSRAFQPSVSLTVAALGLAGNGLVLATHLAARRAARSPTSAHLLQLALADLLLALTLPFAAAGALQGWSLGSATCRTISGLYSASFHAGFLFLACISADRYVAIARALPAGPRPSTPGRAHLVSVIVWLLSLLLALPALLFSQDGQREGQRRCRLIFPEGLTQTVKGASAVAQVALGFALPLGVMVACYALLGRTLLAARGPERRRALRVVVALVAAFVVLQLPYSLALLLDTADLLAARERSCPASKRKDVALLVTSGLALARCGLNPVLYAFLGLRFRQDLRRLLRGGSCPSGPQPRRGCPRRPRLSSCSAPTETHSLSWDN
# Test: CCR10 antagonistic effect: calcium assay of human CCR10 (CTACK-induced increase of intracellular calcium in hCCR10G16 cells)
# Format: cell-based
# Conditions: at a concentration of not more than 1000 nmol/L; human CCR10-expressing hCCR10G16 cells, 300 nmol/L CTACK added; read-out: inhibition of increase in the calcium ion concentration
# In short: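 KJMGER8-derived hCCR10G16 cells (CCR10 plus Gα16, induced 24 h with 10 nmol/L β-estradiol), Fluo-3 loaded, preincubated with compound 30 min at 37 °C. Stimulated with CTACK (300 nmol/L solution before addition); calcium read ~5 min by FDSS, max−min fluorescence; % inhibition vs control.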
row,inhibition at up to 1 µM,SMILES
1,≥ 50%,"Cc1c(Cl)ccc(Nc2cc(S(N)(=O)=O)ncc2C(=O)N2CCC(c3ccc(F)cc3)CC2)c1C [Compound 66, 4-(4-chloro-2,3-dimethylphenylamino)-5-[4-(4-fluorophenyl)piperidine-1-carbonyl]pyridine-2-sulfonamide]"
2,≥ 50%,"Cc1cc(Nc2cc(S(N)(=O)=O)ncc2C(=O)N2CCC(c3ccc(F)cc3)CC2)c(F)cc1Cl [Compound 67, 4-(4-chloro-2-fluoro-5-methylphenylamino)-5-[4-(4-fluorophenyl)piperidine-1-carbonyl]pyridine-2-sulfonamide]"
3,≥ 50%,"Cc1ccc(F)c(Nc2cc(S(N)(=O)=O)ncc2C(=O)N2CCC(c3ccc(F)cc3)CC2)c1 [Compound 68, 4-(2-fluoro-5-methylphenylamino)-5-[4-(4-fluorophenyl)piperidine-1-carbonyl]pyridine-2-sulfonamide]"
4,≥ 50%,"COc1ccc(Cl)cc1Nc1cc(S(N)(=O)=O)ncc1C(=O)N1CCC(c2ccc(F)cc2)CC1 [Compound 69, 4-(5-chloro-2-methoxyphenylamino)-5-[4-(4-fluorophenyl)piperidine-1-carbonyl]pyridine-2-sulfonamide]"
5,≥ 50%,"NS(=O)(=O)c1cc(Nc2cc(F)ccc2Cl)c(C(=O)N2CCC(c3ccc(F)cc3)CC2)cn1 [Compound 70, 4-(2-chloro-5-fluorophenylamino)-5-[4-(4-fluorophenyl)piperidine-1-carbonyl]pyridine-2-sulfonamide]"
6,≥ 50%,"NS(=O)(=O)c1cc(Nc2cc(F)c(Cl)cc2Cl)c(C(=O)N2CCC(c3ccc(F)cc3)CC2)cn1 [Compound 71, 4-(2,4-dichloro-5-fluorophenylamino)-5-[4-(4-fluorophenyl)piperidine-1-carbonyl]pyridine-2-sulfonamide]"
7,≥ 50%,"Cc1cccc(F)c1Nc1cc(S(N)(=O)=O)ncc1C(=O)N1CCC(c2ccc(F)cc2)CC1 [Compound 72, 4-(2-fluoro-6-methylphenylamino)-5-[4-(4-fluorophenyl)piperidine-1-carbonyl]pyridine-2-sulfonamide]"
8,≥ 50%,"NS(=O)(=O)c1cc(Nc2c(F)cccc2F)c(C(=O)N2CCC(c3ccc(F)cc3)CC2)cn1 [Compound 73, 4-(2,6-difluorophenylamino)-5-[4-(4-fluorophenyl)piperidine-1-carbonyl]pyridine-2-sulfonamide]"
9,≥ 50%,"NS(=O)(=O)c1cc(Nc2cccc(F)c2Cl)c(C(=O)N2CCC(c3ccc(F)cc3)CC2)cn1 [Compound 74, 4-(2-chloro-3-fluorophenylamino)-5-[4-(4-fluorophenyl)piperidine-1-carbonyl]pyridine-2-sulfonamide]"
10,≥ 50%,"NS(=O)(=O)c1cc(Nc2ccc(Cl)c(F)c2Cl)c(C(=O)N2CCC(c3ccc(F)cc3)CC2)cn1 [Compound 75, 4-(2,4-dichloro-3-fluorophenylamino)-5-[4-(4-fluorophenyl)piperidine-1-carbonyl]pyridine-2-sulfonamide]"
11,≥ 50%,"Cc1cccc(Nc2cc(S(N)(=O)=O)ncc2C(=O)N2CCC(c3ccc(F)cc3)CC2)c1F [Compound 76, 4-(2-fluoro-3-methylphenylamino)-5-[4-(4-fluorophenyl)piperidine-1-carbonyl]pyridine-2-sulfonamide]"
12,≥ 50%,"Cc1c(Cl)ccc(Nc2cc(S(N)(=O)=O)ncc2C(=O)N2CCC(c3ccc(F)cc3)CC2)c1F [Compound 77, 4-(4-chloro-2-fluoro-3-methylphenylamino)-5-[4-(4-fluorophenyl)piperidine-1-carbonyl]pyridine-2-sulfonamide]"
13,≥ 50%,"COc1ccc(Nc2cc(S(N)(=O)=O)ncc2C(=O)N2CCC(c3ccc(F)cc3)CC2)c(C)c1 [Compound 78, 5-[4-(4-fluorophenyl)piperidine-1-carbonyl]-4-(4-methoxy-2-methylphenylamino)pyridine-2-sulfonamide]"
14,≥ 50%,"Cc1ccc(Nc2cc(S(N)(=O)=O)ncc2C(=O)N2CCC(c3ccc(F)cc3)CC2)cc1Cl [Compound 79, 4-(3-chloro-4-methylphenylamino)-5-[4-(4-fluorophenyl)piperidine-1-carbonyl]pyridine-2-sulfonamide]"
15,≥ 50%,"NS(=O)(=O)c1cc(Nc2ccc(Cl)cc2F)c(C(=O)N2CCC(c3ccc(F)cc3)CC2)cn1 [Compound 80, 4-(4-chloro-2-fluorophenylamino)-5-[4-(4-fluorophenyl)piperidine-1-carbonyl]pyridine-2-sulfonamide]"
16,≥ 50%,"NS(=O)(=O)c1cc(Nc2ccc(Cl)cc2Cl)c(C(=O)N2CCC(c3ccc(F)cc3)CC2)cn1 [Compound 81, 4-(2,4-dichlorophenylamino)-5-[4-(4-fluorophenyl)piperidine-1-carbonyl]pyridine-2-sulfonamide]"

row,inhibition at up to 1 µM,SMILES
1,≥ 50%,"NS(=O)(=O)c1cc(Nc2ccc(Cl)cc2)c(C(=O)N2CCC(c3ccc(F)cc3)CC2)cn1 [Compound 82, 4-(4-chlorophenylamino)-5-[4-(4-fluorophenyl)piperidine-1-carbonyl]pyridine-2-sulfonamide]"
2,≥ 50%,"Cc1cc(Nc2cc(S(N)(=O)=O)ncc2C(=O)N2CCC(c3ccc(F)cc3)CC2)ccc1F [Compound 83, 4-(4-fluoro-3-methylphenylamino)-5-[4-(4-fluorophenyl)piperidine-1-carbonyl]pyridine-2-sulfonamide]"
3,≥ 50%,"COc1ccc(Nc2cc(S(N)(=O)=O)ncc2C(=O)N2CCC(c3ccc(F)cc3)CC2)cc1 [Compound 84, 5-[4-(4-fluorophenyl)piperidine-1-carbonyl]-4-(4-methoxyphenylamino)pyridine-2-sulfonamide]"
4,≥ 50%,"COc1ccc(Nc2cc(S(N)(=O)=O)ncc2C(=O)N2CCC(c3ccc(F)cc3)CC2)cc1F [Compound 86, 4-(3-fluoro-4-methoxyphenylamino)-5-[4-(4-fluorophenyl)piperidine-1-carbonyl]pyridine-2-sulfonamide]"
5,≥ 50%,"COc1ccc(Nc2cc(S(N)(=O)=O)ncc2C(=O)N2CCC(c3ccc(F)cc3)CC2)c(F)c1 [Compound 87, 4-(2-fluoro-4-methoxyphenylamino)-5-[4-(4-fluorophenyl)piperidine-1-carbonyl]pyridine-2-sulfonamide]"
6,≥ 50%,"COc1ccc(Nc2cc(S(N)(=O)=O)ncc2C(=O)N2CCC(c3ccc(F)cc3)CC2)cc1C [Compound 88, 5-[4-(4-fluorophenyl)piperidine-1-carbonyl]-4-(4-methoxy-3-methylphenylamino)pyridine-2-sulfonamide]"
7,≥ 50%,"COc1ccc(Nc2cc(S(N)(=O)=O)ncc2C(=O)N2CCC(c3ccc(F)cc3)CC2)cc1C(F)(F)F [Compound 89, 5-[4-(4-fluorophenyl)piperidine-1-carbonyl]-4-[4-methoxy-3-(trifluoromethyl)phenylamino]pyridine-2-sulfonamide]"
8,≥ 50%,"NS(=O)(=O)c1cc(Nc2ccc(Br)cc2Cl)c(C(=O)N2CCC(c3ccc(F)cc3)CC2)cn1 [Compound 90, 4-(4-bromo-2-chlorophenylamino)-5-[4-(4-fluorophenyl)piperidine-1-carbonyl]pyridine-2-sulfonamide]"
9,≥ 50%,"NS(=O)(=O)c1cc(Nc2ccc(Br)cc2F)c(C(=O)N2CCC(c3ccc(F)cc3)CC2)cn1 [Compound 91, 4-(4-bromo-2-fluorophenylamino)-5-[4-(4-fluorophenyl)piperidine-1-carbonyl]pyridine-2-sulfonamide]"
10,≥ 50%,"COc1ccc(Nc2cc(S(N)(=O)=O)ncc2C(=O)N2CCC(c3ccc(F)cc3)CC2)c(Cl)c1 [Compound 92, 4-(2-chloro-4-methoxyphenylamino)-5-[4-(4-fluorophenyl)piperidine-1-carbonyl]pyridine-2-sulfonamide]"
11,≥ 50%,"COc1ccc(C)c(Nc2cc(S(N)(=O)=O)ncc2C(=O)N2CCC(c3ccc(F)cc3)CC2)c1 [Compound 93, 5-[4-(4-fluorophenyl)piperidine-1-carbonyl]-4-(5-methoxy-2-methylphenylamino)pyridine-2-sulfonamide]"
12,≥ 50%,"NS(=O)(=O)c1cc(Nc2ccc3c(c2)CCO3)c(C(=O)N2CCC(c3ccc(F)cc3)CC2)cn1 [Compound 94, 4-(2,3-dihydrobenzofuran-5-ylamino)-5-[4-(4-fluorophenyl)piperidine-1-carbonyl]pyridine-2-sulfonamide]"
13,≥ 50%,"NS(=O)(=O)c1cc(Nc2ccccc2)c(C(=O)N2CCC(c3ccc(F)cc3)CC2)cn1 [Compound 95, 5-[4-(4-fluorophenyl)piperidine-1-carbonyl]-4-(phenylamino)pyridine-2-sulfonamide]"
14,≥ 50%,"Cc1cccc(Nc2cc(S(N)(=O)=O)ncc2C(=O)N2CCC(c3ccc(F)cc3)CC2)c1 [Compound 96, 5-[4-(4-fluorophenyl)piperidine-1-carbonyl]-4-(m-tolylamino)pyridine-2-sulfonamide]"
15,≥ 50%,"Cc1ccc(Nc2cc(S(N)(=O)=O)ncc2C(=O)N2CCC(c3ccc(F)cc3)CC2)cc1 [Compound 98, 5-[4-(4-fluorophenyl)piperidine-1-carbonyl]-4-(p-tolylamino)pyridine-2-sulfonamide]"
